The source of these data is US11078214B2, “Monocyclic thieno, pyrido, and pyrrolo pyrimidine compounds and methods of use and manufacture of same” (Duquesne University of the Holy Spirit, priority 2015, dated 2021).

One assay concerns D4 CHO cells (FRβ). The assay is described as follows: Growth inhibition of CHO subline D4 expressing FRβ. It is filed as cell-based, Chinese hamster.
In a further assay the test system is RT16 CHO cells (FRα). The assay is described as follows: Growth inhibition of CHO subline RT16 expressing human FRα. In kind it is cell-based, Chinese hamster.
For assay [1], the system named is KB human tumor cells (RFC/FRα/PCFT). The assay is described as follows: Growth inhibition of KB human tumor cells. In kind it is cell-based. From the text:
The experiments with the CHO sublines were extended to KB human nasopharyngeal carcinoma cells which express highly elevated FRα, along with RFC and PCFT.

Assay [2] concerns PC43-10 CHO cells (human RFC). The assay is described as follows: Growth inhibition of CHO subline PC43-10 expressing human RFC. In kind it is cell-based, Chinese hamster.
A further assay relates to purified tubulin. The assay is described as follows: Inhibition of the assembly of purified tubulin. In kind it is biochemical. The following applies: Section V Table 3; read-out: Inhibition of tubulin assembly IC50 (μM) ± SD.
A further assay deals with MDA-MB-435 cancer cells. The assay is described as follows: Antiproliferative sulforhodamine B (SRB) assay in MDA-MB-435 cells. In kind it is cell-based, human.
The subject of a further assay is HeLa. The assay is described as follows: Antiproliferative SRB assay, parental HeLa. In kind it is cell-based, human. From the text: (§1) A second clinically relevant mechanism of drug resistance to these microtubule agents is the expression of βIII isotype of tubulin. […] The WT βIII cell line was generated from HeLa cells transfected with the gene for/III-tubulin.
(The SRB assay estimates cell density from bound dye.)

In another assay the test system is cellular microtubules. The assay is described as follows: Cellular microtubule depolymerization (Section V). In kind it is cell-based. The following applies: Section V Table 2; bare values under μM head, EC50/IC50 ratio implies nM.
Another assay relates to A-10 cells. The assay is described as follows: Cellular microtubule depolymerization (loss of cellular microtubules) in A-10 cells. It is filed as cell-based.
The test system of assay [3] is tubulin (colchicine site). The assay is described as follows: Inhibition of [3H]colchicine binding to tubulin. The settings on record: 1 μM inhibitor.
The subject of the next assay is SK-OV-3. The assay is described as follows: Antiproliferative SRB assay, parental SK-OV-3. It is filed as cell-based, human.
The test system of the next assay is SK-OV-3 MDR-1-6/6. The assay is described as follows: cells. It is filed as cell-based, human.
The target in assay [4] is T1, recombinant pjDHFR (Pneumocystis jirovecii (Human pneumocystis pneumonia agent), UniProt Q9UUP5). The settings on record: Section I Table 1; cited from earlier work.
The next assay concerns the target hDHFR (Homo sapiens (Human), UniProt P00374). The assay is described as follows: Inhibition of recombinant hDHFR. It is filed as biochemical. The settings on record: Section I Table 3; 37° C., 18 μM dihydrofolic acid; title says μM, head nM; read-out: Human DHFR.
Assay [5] concerns the target T1, recombinant pjDHFR. The following applies: Section I Table 3.
Assay [6] has as its system R2 CHO cells (transporter-null). The assay is described as follows: Growth inhibition of transporter-null R2 CHO cells. It is filed as cell-based, Chinese hamster. The settings on record: Cricetulus griseus.
Assay [7] relates to R2/PCFT4 CHO cells (PCFT). The assay is described as follows: Growth inhibition of CHO subline R2/PCFT4 expressing human PCFT. In kind it is cell-based, Chinese hamster. The settings on record: Cricetulus griseus.
The next assay relates to WT βIII cell line. The assay is described as follows: Antiproliferative SRB assay, WT βIII (HeLa transfected with βIII-tubulin). In kind it is cell-based. The settings on record: Homo sapiens.
Description: as §1

Where [8] appears, read: Section III Table 1, read-out: R2 (nM) Null IC50.
The mark [9] stands for this setting: Section VI Table 1, read-out: R2 IC50.
Setting [10] is: Cricetulus griseus, CHO, Section III Table 1, read-out: D4 (nM) FRβ IC50.
Setting [11] is: Cricetulus griseus, CHO, Section VI Table 1, read-out: FRβ (nM) D4 IC50.
[12] abbreviates: Cricetulus griseus, RT16, Section III Table 1, read-out: RT16 (nM) FRα IC50.
Where [13] appears, read: Cricetulus griseus, RT16, Section VI Table 1, read-out: FRα (nM) R16 IC50.
[14] abbreviates: R2/PCFT4, Section VI Table 1, read-out: PCFT (nM) R2/PCFT4 IC50.
Where [15] appears, read: Section III Table 1, R2/PCFT4, read-out: PCFT4 (nM) PCFT IC50.
[16] abbreviates: Homo sapiens, Section III Table 1, read-out: KB (nM) RFC/FRα/PCFT IC50.
[17] abbreviates: Homo sapiens, Section VI Table 1, read-out: FRα/PCFT/RFC (nM) KB IC50.
Setting [18] is: Rattus norvegicus, A10, Section II Table 1, 50% loss of cellular microtubules, read-out: Microtubule depolymerization (A-10 cells) EC50 ± SD.
Setting [19] is: Homo sapiens, PC43-10, Section III Table 1, read-out: PC43-10 (nM) RFC IC50.
The mark [20] stands for this setting: Homo sapiens, PC43-10, Section VI Table 1, read-out: RFC (nM) PC43-10 IC50.

Like-named read-outs stand apart in the source and are kept apart here. A value given as a limit tells only on which side of the number the result lay.

Chain of hDHFR (P00374 whole entry): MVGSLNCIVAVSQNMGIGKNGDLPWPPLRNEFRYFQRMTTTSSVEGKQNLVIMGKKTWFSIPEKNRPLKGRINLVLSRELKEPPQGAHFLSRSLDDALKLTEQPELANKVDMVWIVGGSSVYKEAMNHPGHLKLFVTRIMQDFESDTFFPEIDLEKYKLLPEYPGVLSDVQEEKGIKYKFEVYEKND

For the compound `Nc1nc2[nH]c(CCCc3ccc(C(=O)N[C@@H](CCC(=O)O)C(=O)O)cc3)cc2c(=O)[nH]1` [AGF17, reference compound], the IC50 in the assay on D4 CHO cells (FRβ) (Section IV Table 1, +FA, read-out: FRβ D4 (+FA) IC50) was > 1000 nM; with D4 CHO cells (FRβ) (Section IV Table 1, read-out: FRβ D4 IC50), 2.7 nM; in the assay on RT16 CHO cells (FRα) (Section IV Table 1, +FA, read-out: FRα RT16 (+FA) IC50), > 1000 nM; in the assay on RT16 CHO cells (FRα) (Section IV Table 1, read-out: FRα RT16 IC50) it was 3.2 nM; in [1] (Section IV Table 1, +FA, read-out: KB (+FA) IC50), > 1000 nM; in [1] (Section IV Table 1, read-out: RFC/FRα/PCFT KB IC50), 1.8 nM. Moreover, the IC50 in assay [2] (Section IV Table 1, spread in parentheses, read-out: RFC PC43-10 IC50) worked out at 648 nM.
As for `COc1ccc(/C=C\c2cc(OC)c(OC)c(OC)c2)cc1O` [CA4, Combretastatin A-4, reference compound], the IC50 with purified tubulin turned out to be […]; in the assay with MDA-MB-435 cancer cells (Section II Table 1, SRB assay, read-out: MDA-MB-435 IC50 ± SD) it was 3.4 ± 0.6 nM; in the assay with MDA-MB-435 cancer cells (Section V Table 2, read-out: IC50 MDA-MB-435) it was 4.4 ± 0.46 nM; in the assay with MDA-MB-435 cancer cells (Section VIII Table 1, read-out: IC50 ± SD (MDA-MB-435) nM cancer cells), 3.4 ± 0.6 nM; in the assay on HeLa (parental HeLa, read-out: HeLa IC50 ± SD), 4.7 ± 0.2 nM; with SK-OV-3 (parental cell line, SRB, n = 3, read-out: SK-OV-3 IC50 ± SD), […]. Also, in the assay on SK-OV-3 MDR-1-6/6 (Pgp overexpressing cell line, SRB, n = 3, read-out: SK-OV-3 MDR-1-6/6 IC50 ± SD), the IC50 was 6.6 ± 1.3 nM. Besides, the concentration giving a half-maximal response (EC50) in the assay on cellular microtubules was found to be 9.8 µM; in the assay with A-10 cells (Section II Table 1, nM, read-out: Microtubule depolymerization (A-10 cells) EC50) it was 13 nM; with A-10 cells (Section VIII Table 1, read-out: EC50 (nM) in A-10 cells (Loss of cellular microtubules)), 13 nM. Moreover, the “Inhibition of colchicine binding % Inhibition ± SD” value in [3] was 85 ± 3%.
In the case of `Cc1nc(N)nc2ccc(Nc3cc(F)c(F)c(F)c3)nc12` [Compound A], the “Hu/Pj selectivity ratio (hDHFR/pjDHFR)” value at recombinant pjDHFR [4] is 3.5. Further, the IC50 at hDHFR came out at 3.1 µM; at recombinant pjDHFR [5] (read-out: DHFR Pj, 37° C., 18 μM dihydrofolic acid, title says μM, head nM), 0.87 µM. On recombinant pjDHFR [5], the Hu/Pj selectivity ratio is 3.5.
For `COc1cc(NCc2ccc3nc(N)nc(N)c3c2C)cc(OC)c1OC` [TMQ, trimetrexate], the “Hu/Pj selectivity ratio (hDHFR/pjDHFR)” value on recombinant pjDHFR [4] is listed as 0.1.
`COc1ccc(N(C)c2nc(C)nc3cc[nH]c23)cc1` [compound 1]: the IC50 in assay [6] (setting [8]) was > 1000 nM; in assay [6] (setting [9]) it was 289 nM; in the assay on D4 CHO cells (FRβ) (setting [10]), 10 nM; in the assay with D4 CHO cells (FRβ) (setting [11]), 0.2 nM; with RT16 CHO cells (FRα) (setting [12]), 6.3 nM; in the assay on RT16 CHO cells (FRα) (setting [13]), 0.19 nM. In addition, the IC50 is 3.64 nM in [7] (setting [14]); 213 nM in assay [7] (setting [15]); 270 ± 26 nM in the assay with HeLa (Homo sapiens, parental HeLa, read-out: HeLa IC50 ± SD); 1.9 nM in assay [1] (setting [16]); 0.2 nM in assay [1] (setting [17]); > 1000 nM in [2] (setting [19]). The IC50 is 101 nM in assay [2] (setting [20]); 278 ± 19 nM in the assay with SK-OV-3 (Homo sapiens, SK-OV-3, parental cell line, SRB, n = 3, read-out: SK-OV-3 IC50 ± SD); 186 ± 21 nM with WT βIII cell line (HeLa transfected with βIII-tubulin, read-out: WT βIII IC50 ± SD). Also, the 50% effective concentration (EC50) amounted to 5800 nM in the assay on A-10 cells (setting [18]) and 5800 nM in the assay with A-10 cells (Rattus norvegicus, A10, Section VIII Table 1, read-out: EC50 (nM) in A-10 cells (Loss of cellular microtubules)).
Consider `COc1ccc(N(C)c2nc(C)nc3ccsc23)cc1` [compound 2], for which the IC50 in [6] (read-out: R2 (nM) Null IC50) was > 1000 nM; in [6] (read-out: R2 IC50), > 1000 nM; with D4 CHO cells (FRβ) (Cricetulus griseus, CHO, read-out: D4 (nM) FRβ IC50) it was 0.52 nM; in the assay on D4 CHO cells (FRβ) (Cricetulus griseus, CHO, read-out: FRβ (nM) D4 IC50) it was 2.36 nM; with RT16 CHO cells (FRα) (Cricetulus griseus, RT16, read-out: FRα (nM) R16 IC50), 1.72 nM; in the assay with RT16 CHO cells (FRα) (Cricetulus griseus, RT16, read-out: RT16 (nM) FRα IC50), 1.27 nM. In addition, the IC50 with MDA-MB-435 cancer cells (Homo sapiens, MDA-MB-435, read-out: MDA-MB-435 IC50 ± SD (nM)) stood at 198 ± 23 nM; in [7] (R2/PCFT4, read-out: PCFT4 (nM) PCFT IC50) it was 57.6 nM; in [7] (R2/PCFT4, read-out: PCFT (nM) R2/PCFT4 IC50), 40 nM; with HeLa (Homo sapiens, HeLa, read-out: HeLa IC50 ± SD (nM)) it was 186 ± 19 nM; in assay [1] (Homo sapiens, read-out: FRα/PCFT/RFC (nM) KB IC50), 1.13 nM; in assay [1] (Homo sapiens, read-out: KB (nM) RFC/FRα/PCFT IC50), 0.34 nM. Also, the IC50 was > 1000 nM in [2] (Homo sapiens, PC43-10, read-out: PC43-10 (nM) RFC IC50); > 1000 nM in [2] (Homo sapiens, PC43-10, read-out: RFC (nM) PC43-10 IC50); 253 ± 23 nM in the assay on SK-OV-3 (Homo sapiens, SK-OV-3, read-out: SK-OV-3 IC50 ± SD (nM)); 152 ± 14 nM in the assay on WT βIII cell line (HeLa, read-out: WT βIII IC50 ± SD (nM)); 438 ± 58 nM in the assay on SK-OV-3 MDR-1-6/6 (Homo sapiens, SK-OV-3, read-out: SK-OV-3 MDR-1-6/6 IC50 ± SD (nM)). Also, in the assay on A-10 cells (Rattus norvegicus, A10, read-out: Microtubule depolymerization (A-10 cells) EC50 ± SD (μM)), the EC50 is 8100 nM.
In the case of `CSc1ccc(Nc2nc(C)nc3ccsc23)cc1` [compound 3], the IC50 was > 1000 nM in assay [6] (setting [8]); > 1000 nM in [6] (setting [9]); 0.43 nM with D4 CHO cells (FRβ) (setting [10]); > 1000 nM in the assay on D4 CHO cells (FRβ) (setting [11]); 2.54 nM in the assay with RT16 CHO cells (FRα) (setting [12]); > 1000 nM in the assay with RT16 CHO cells (FRα) (setting [13]). Further, the IC50 in [7] (setting [14]) is > 1000 nM; in assay [7] (setting [15]) it was 41.5 nM; in assay [1] (setting [16]), 0.48 nM; in [1] (setting [17]), 674 nM; in assay [2] (setting [19]), > 1000 nM; in assay [2] (setting [20]), > 1000 nM. Besides, the EC50 in the assay on A-10 cells (setting [18]) is > 10000 nM.

For orientation: EC50 means the concentration needed to bring the measured effect to its halfway point.
